# Measurements: patent US6168939A, “Endopeptidase produced by Lactobacillus helveticus” (priority 1995, dated 2001)
# “Also recorded” adds a separate entry of the source. Numbered stars: 1 amine (or outer) side, 2 acyl side, 3 side chain; on linkers, the order of the positions; unused ones are H or OH. Ends that are not written are not given here. Peptide text beside a SMILES is read from it. * marks the point of attachment. pNA = O=[N+]([O-])c1ccc(N*)cc1; Suc = O=C(CCC(=O)[*:2])[*:1]; MeOSuc = COC(=O)CCC(=O)*
# Molecular target: T1, endopeptidase produced by Lactobacillus helveticus (Lactobacillus helveticus, UniProt Q6UP05)
# T1 construct: N-terminus […]
# T1 sequence (Q6UP05 1-643): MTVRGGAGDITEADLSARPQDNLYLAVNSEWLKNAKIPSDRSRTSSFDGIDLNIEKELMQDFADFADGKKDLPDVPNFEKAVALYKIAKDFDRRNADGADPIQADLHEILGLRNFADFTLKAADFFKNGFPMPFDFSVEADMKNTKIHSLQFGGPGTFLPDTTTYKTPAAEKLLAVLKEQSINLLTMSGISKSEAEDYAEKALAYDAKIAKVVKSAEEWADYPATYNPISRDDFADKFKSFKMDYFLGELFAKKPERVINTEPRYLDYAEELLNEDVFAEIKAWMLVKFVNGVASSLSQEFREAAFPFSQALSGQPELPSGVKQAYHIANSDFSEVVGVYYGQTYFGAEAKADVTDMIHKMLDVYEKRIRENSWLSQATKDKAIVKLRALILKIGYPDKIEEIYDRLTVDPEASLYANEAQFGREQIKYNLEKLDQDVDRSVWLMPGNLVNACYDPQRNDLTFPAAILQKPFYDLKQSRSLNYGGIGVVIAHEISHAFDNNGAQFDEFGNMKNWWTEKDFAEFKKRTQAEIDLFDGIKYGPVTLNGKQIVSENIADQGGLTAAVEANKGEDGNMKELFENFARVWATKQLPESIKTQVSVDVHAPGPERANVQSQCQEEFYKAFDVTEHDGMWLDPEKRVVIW
# Experiment: not given
# Format: biochemical
# Conditions: 0.001 to 2.0 mM inhibitor, 30 min. at 4° C.; 1 mM Tyr-Gly-Gly-Phe-Met, pH 7.0, 30° C.
# Protocol: (§1) The influences of enzyme inhibitors on the-activity of the endopeptidase of the present invention was determined. The purified endopeptidase (0.5 μg protein/ml) in 40 mM HEPES, pH7.0, was incubated for 30 min. at 4° C. with 0.001 to 2.0 mM enzyme inhibitors. After pre-incubating the enzyme mixture for 5 min. at 30° C., 1 mM Tyr-Gly-Gly-Phe-Met (SEQ ID NO: 2) was added to start the reaction and the mixture was incubated for 20 min. at 30° C. The reaction was stopped by 10% acetic acid.
# The enzyme activity was determined by reversed phase chromatography.
row,Molecule,inhibition of endopeptidase activity by enzyme inhibitors
1,"O=S(=O)(O)c1cc[c]([Hg][Cl])cc1 [p-CMBS, p-chloromercuribenzenesulfonic acid]",inhibited; also recorded: inhibition
2,O=S(=O)(F)Cc1ccccc1 [phenylmethylsulfonyl fluoride],no inhibition
3,"c1cnc2c(c1)ccc1cccnc12 [1,10-phenanthroline]",inhibited; also recorded: inhibition

# Same assay, conditions: pH 7
row,Molecule,inhibition of endopeptidase activity by enzyme inhibitors
1,O=C(O)CI [iodoacetic acid],no inhibition
2,"O=C(O)CN(CCN(CC(=O)O)CC(=O)O)CC(=O)O [EDTA, ethylenediaminetetraacetic acid]",inhibited; also recorded: inhibition

# Molecular target: T1, endopeptidase produced by Lactobacillus helveticus
# Experiment: Substrate specificity: hydrolysis of substrates by the endopeptidase
# Format: biochemical
# Design: key: + represents that a substrate was hydrolyzed; - represents that a substrate was not hydrolyzed
# Conditions: 2 to 5 mM substrate, 50 mM HEPES pH 7.0, 30° C., 5.0 hrs
# Protocol: The substrate specificity of the endopeptidase of the present invention was determined. In 200 μl of 2 to 5 mM substrate in 50 mM HEPES buffer, pH 7.0, 10 μl of the endopeptidase solution of the present invention in 50 mM HEPES buffer, pH 7.0, at five μg/ml was added and incubated at 30° C. for 5.0 hrs. Then, the reaction mixture was applied to reversed phase chromatography and eluted using linear increase of concentration of acetonitrile in 0.1% trifluoroacetic acid from zero to 60%. The hydrolysis was determined from the decrease of the peak area of the substrate and/or the appearance of a new peak(s) at 214 nm on the chromatogram.
row,Molecule,Hydrolysis
1,"Parathyroid hormone, human, f13-34: human parathyroid hormone fragment 13-34, 22 amino acid residues (KHLNSMERVEWLRKKLQDVHNF; Parathyroid hormone; UniProt P01270 44-65, looked up, fragment)",+
2,Ala-Ala-Ala-Ala-Ala-Ala,+
3,"β-Casein, f203-209: β-Casein fragment 203-209, 7 amino acid residues (GPFPIIV; UniProt P02666 218-224, looked up, fragment)",+
4,"Parathyroid hormone, human, f1-44: human parathyroid hormone fragment 1-44, 44 amino acid residues (SVSEIQLMHNLGKHLNSMERVEWLRKKLQDVHNFVALGAPLAPR; Parathyroid hormone; UniProt P01270 32-75, looked up, fragment)",-
5,κ-Casein: casein protein substrate,-
6,"Angiotensin (DRVYIHPFHL; Angiotensin-1; UniProt P01019 25-34, looked up)",+
7,Pro-Lys-Gly-Gly (PKGG),-
8,Tyr-Gly-Gly,-
9,Phe-Met,-
10,"Parathyroid hormone, human, f1-38: human parathyroid hormone fragment 1-38, 38 amino acid residues (SVSEIQLMHNLGKHLNSMERVEWLRKKLQDVHNFVALG; Parathyroid hormone; UniProt P01270 32-69, looked up, fragment)",-
11,O=C(Nc1ccc([N+](=O)[O-])cc1)[C@@H]1CCCN1 [Pro-pNA],-
12,NCCCC[C@H](N)C(=O)Nc1ccc([N+](=O)[O-])cc1 [Lys-pNA],-
13,RPPGFSPFR [Bradykinin],+
14,Phe-Val,-
15,O=C(O)CCC(=O)N[C@@H](Cc1ccccc1)C(=O)Nc1ccc([N+](=O)[O-])cc1 [Suc-Phe-pNA],-
16,"Parathyroid hormone, human, f1-34: human parathyroid hormone fragment 1-34, 34 amino acid residues",+
17,Met-Gly-Gly,-
18,CC(C)C[C@H](NC(=O)[C@@H]1CCCN1C(=O)[C@H](C)NC(=O)[C@H](C)NC(=O)CCC(=O)O)C(=O)Nc1ccc([N+](=O)[O-])cc1 [Suc-Ala-Ala-Pro-Leu-pNA] (Suc-AAPL-pNA),-
19,COC(=O)CCC(=O)N[C@@H](CCCNC(=N)N)C(=O)N1CCC[C@H]1C(=O)N[C@@H](Cc1ccc(O)cc1)C(=O)Nc1ccc([N+](=O)[O-])cc1 [MeO-Suc-Arg-Pro-Tyr-pNA] (MeOSuc-Arg-Pro-Tyr-pNA),-
20,Leu-Gly-Gly,-
21,Gly-Pro-Arg-Pro (GPRP),-

row,Molecule,Hydrolysis
1,CSCC[C@H](NC(=O)[C@H](CC(C)C)NC(=O)CNC(=O)[C@H](Cc1ccccc1)NC(=O)[C@H](Cc1ccccc1)NC(=O)[C@H](CCC(N)=O)NC(=O)[C@H](CCC(N)=O)NC(=O)[C@@H]1CCCN1C(=O)[C@H](CCCCN)NC(=O)[C@@H]1CCCN1C(=O)[C@@H](N)CCCNC(=N)N)C(N)=O [Substance P],+
2,Leu-Leu-Leu,+
3,Gly-Pro-Gly-Gly (GPGG),-
4,Pro-Ala,-
5,"β-Casein, f108-113: β-Casein fragment 108-113, 6 amino acid residues (EMPFPK; UniProt P02666 123-128, looked up, fragment)",+
6,Neurotensin,+
7,Z-Phe-Ala,-
8,Ala-Ala-Ala-Ala-Ala,+
9,Ala-Pro-pNA,-
10,Ala-Ala-Ala-Ala (AAAA),+
11,CSCC[C@H](NC(=O)[C@H](Cc1ccccc1)NC(=O)CNC(=O)CNC(=O)[C@@H](N)Cc1ccc(O)cc1)C(=O)O [Met-Enkephalin],+
12,Dynorphin A,+
13,β-Casomorphin,-
14,Pro-Gly-Gly,-
15,Insulin β-chain,+
16,Pro-Gly-Lys-Ala-Arg (PGKAR),-
17,Bzl-Cys-pNA,-
18,Leu-Leu,-
19,"α51 -Casein: casein protein substrate (probably αs1-casein) (protein, UniProt P02662 16-214, looked up) Alpha-S1-casein: RPKHPIKHQGLPQEVLNENLLRFFVAPFPEVFGKEKVNELSKDIGSESTEDQAMEDIKQMEAESISSSEEIVPNSVEQKHIQKEDVPSERYLGYLEQLLRLKKYKVPQLEIVPNSAEERLHSMKEGIHAQQKEPMIGVNQELAYFYPELFRQFYQLDAYPSGAWYYVPLGTQYTDAPSFSDIPNPIGSENSEKTTMPLW",-
20,"β-Casein: casein protein substrate (protein, UniProt P02666 16-224, looked up) Beta-casein: RELEELNVPGEIVESLSSSEESITRINKKIEKFQSEEQQQTEDELQDKIHPFAQTQSLVYPFPGPIPNSLPQNIPPLTQTPVVVPPFLQPEVMGVSKVKEAMAPKHKEMPFPKYPVEPFTESQSLTLTDVENLHLPLPLLQSWMHQPHQPLPPTVMFPPQSVLSLSQSKVLPVPQKAVPYPQRDMPIQAFLLYQEPVLGPVRGPFPIIV",-

# Same assay, conditions: substrate + LAP (leucine aminopeptidase); pH 7.0, 30° C., 5.0 hrs
row,Molecule,Hydrolysis
1,COC(=O)CCC(=O)N[C@@H](CCCNC(=N)N)C(=O)N1CCC[C@H]1C(=O)N[C@@H](Cc1ccc(O)cc1)C(=O)Nc1ccc([N+](=O)[O-])cc1 [MeO-Suc-Arg-Pro-Tyr-pNA] (MeOSuc-Arg-Pro-Tyr-pNA),+

# Molecular target: T1, endopeptidase produced by Lactobacillus helveticus
# Experiment: Influence of metal ions on endopeptidase activity
# Format: biochemical
# Conditions: method according to Test example 7
# Protocol: as §1
# The influences of metal ions to the activity of the endopeptidase of the present invention was determined similarly by the method according to Test example 7. The enzyme activity was inhibited by Cu^2+, Zn^2+ and Fe^2+.
row,Molecule,inhibition of endopeptidase activity by metal ions
1,[Zn+2] [Zn^2+],inhibited
2,[Fe+2] [Fe^2+],inhibited
3,[Cu+2] [Cu^2+],inhibited
